We go through 26 molecules from patent publication US6215002A, “Pyrrolopyrrolone derivatives as inhibitors of neutrophil elastase” (priority 1996, dated 2001).

The assay has as its target T1, human neutrophil elastase (Homo sapiens, UniProt P08246).
T1 sequence (P08246 30-267): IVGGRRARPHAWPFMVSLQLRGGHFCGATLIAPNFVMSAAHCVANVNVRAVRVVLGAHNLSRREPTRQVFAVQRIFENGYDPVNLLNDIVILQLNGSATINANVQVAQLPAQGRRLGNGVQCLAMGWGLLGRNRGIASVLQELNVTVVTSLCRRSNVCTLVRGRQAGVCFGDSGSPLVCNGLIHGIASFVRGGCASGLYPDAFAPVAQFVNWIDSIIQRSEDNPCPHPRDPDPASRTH
Kind of assay: In vitro assay of human neutrophil elastase (HNE). It counts as biochemical. Particulars: 118 nM purified human neutrophil elastase, pH 8.6, 15 min incubation at 30° C., MeO-succinyl-alanyl-alanyl-prolyl-valyl-p-nitroanilide substrate; read-out: HNE IC50. The procedure, abridged: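 Residual activity was taken as the 10 min rate of absorbance rise at 405 nm after adding 0.6 mM MeO-succinyl-AAPV-p-nitroanilide. Curve fitting of activity against concentration gave IC50.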

Structures can show the parent of a compound that is named as a salt.

For the molecule `C=CC[C@H]1C(=O)N(S(=O)(=O)c2cccc([N+](=O)[O-])c2)[C@H]2CCN(C(=O)OCc3ccccc3)[C@H]12` (relative stereo) [Example 38, rel-(3aS,6R,6aR)-6-Allyl-4-(3-nitro-benzenesulfonyl)-5-oxo-hexahydro-pyrrolo[3,2-b]pyrrole-1-carboxylic acid benzyl ester], the IC50 worked out at 205 nM.
To `CCC[C@H]1C(=O)N(S(C)(=O)=O)[C@H]2CCN(C(=O)CCN3CCCCC3)[C@H]12` (relative stereo) [Example 30, rel-(3R,3aR,6aS)-1-Methanesulfonyl-4-(3-piperidin-1-yl-propionyl)-3-propyl-hexahydro-pyrrolo[3,2-b]pyrrol-2-one hydrochloride] belongs 189 nM.
Turning to `CS[C@H]1C(=O)N(S(C)(=O)=O)[C@H]2CCN(C(=O)OCc3ccccc3)[C@H]12` (relative stereo) [Example 157], the IC50 was found to be 209 nM.
Consider `CCC[C@H]1C(=O)N(S(C)(=O)=O)[C@H]2CCN(C(=O)CCCN3CCN(C)CC3)[C@H]12` (relative stereo) [Example 82, rel-(3R,3aR,6aS)-1-Methanesulfonyl-4-[4-(4-methyl-piperazin-1-yl)-butyryl]-3-propyl-hexahydro-pyrrolo[3,2-b]pyrrol-2-one dihydrochloride], for which the IC50 was 162 nM.
Regarding `CCC[C@H]1C(=O)N(S(C)(=O)=O)[C@H]2CCN(C(=O)CCCCCCCCCN3CCN(C)CC3)[C@H]12` (relative stereo) [Example 69, rel-(3R,3aR,6aS)-1-Methanesulfonyl-4-[10-(4-methyl-piperazin-1-yl)-decanoyl]-3-propyl-hexahydro-pyrrolo[3,2-b]pyrrol-2-one dihydrochloride], the IC50 was 80 nM.
`CC(C)[C@H]1C(=O)N(S(C)(=O)=O)[C@H]2CCN(S(=O)(=O)c3ccc(CN4CCCCCC4)cc3)[C@H]12` (relative stereo) [Example 199, rel-(3R,3aR,6aS)-4-(4-Azepin-1-ylmethyl-benzenesulfonyl)-3-isopropyl-1-methanesulfonyl-hexahydro-pyrrolo[3,2-b]pyrrol-2-one hydrochloride]: the IC50 was 99 nM.
As for `CCC[C@H]1C(=O)N(S(C)(=O)=O)[C@H]2CCN(S(=O)(=O)c3ccc(NC(C)=O)c(Cl)c3)[C@H]12` (relative stereo) [Example 213, rel-N-[2-Chloro-4-(4-methanesulfonyl-5-oxo-6R-propyl-hexahydro-(3aS,6aR)-pyrrolo[3,2-b]pyrrole-1-sulfonyl)-phenyl]-acetamide], the IC50 is 40 nM.
As for `CCC[C@H]1C(=O)N(S(C)(=O)=O)[C@H]2CCN(C(=O)CN3CCCC3)[C@H]12` (relative stereo) [Example 108, hydrochloride], the figure is 481 nM.
With `CCC[C@H]1C(=O)N(S(C)(=O)=O)[C@H]2CCN(C(=O)CCCN(CC)CC)[C@H]12` (relative stereo) [Example 83, rel-(3R,3aR,6aS)-4-(4-Diethylamino-butyryl)-1-methanesulfonyl-3-propyl-hexahydro-pyrrolo[3,2-b]pyrrol-2-one DL-tartrate], the IC50 amounted to 198 nM.
For the molecule `CCC[C@H]1C(=O)N(S(C)(=O)=O)[C@H]2CCN(C(=O)CCCCCN(C)c3ccccc3)[C@H]12` (relative stereo) [Example 81, rel-(3R,3aR,6aS)-1-Methanesulfonyl-4-[6-(methyl-phenyl-amino)-hexanoyl]-3-propyl-hexahydro-pyrrolo[3,2-b]pyrrol-2-one hydrochloride], the IC50 came out at 67 nM.
In the case of `CCC[C@H]1C(=O)N(S(C)(=O)=O)[C@H]2CCN(C(C)=O)[C@H]12` (relative stereo) [Example 28, rel-(3R,3aR,6aS)-4-Acetyl-1-methanesulfonyl-3-propyl-hexahydro-pyrrolo[3,2-b]pyrrol-2-one], the IC50 stood at 64 nM.
Take `C=CC[C@H]1C(=O)N(S(=O)(=O)c2ccc3ccccc3c2)[C@H]2CCN(C(=O)OCc3ccccc3)[C@H]12` [Example 55, (3aS,6R,6aR)-6-Allyl-4-(naphthalene-2-sulfonyl)-5-oxo-hexahydro-pyrrolo[3,2-b]pyrrole-1-carboxylic acid benzyl ester]: the IC50 came to 38 nM.
For `CCC[C@H]1C(=O)N(S(C)(=O)=O)[C@H]2CCN(C(=O)/C=C/C(=O)OCC)[C@H]12` (relative stereo) [Example 128, rel-(3R,3aR,6aS)-4-(4-Methanesulfonyl-5-oxo-6-propyl-hexahydro-pyrrolo[3,2-b]pyrrole-1-yl)-4-oxo-but-2E-enoic acid ethyl ester], the IC50 was determined as 30 nM.
Turning to `CCC[C@H]1C(=O)N(S(C)(=O)=O)[C@H]2CCN(C(=O)CCCCCCCCCN3CCCCCC3)[C@H]12` (relative stereo) [Example 66, rel-(3R,3aR,6aS)-4-(10-Azepin-1-yl-decanoyl)-1-methanesulfonyl-3-propyl-hexahydro-pyrrolo[3,2-b]pyrrol-2-one hydrochloride], the IC50 came to 34 nM.
To `CCCCOc1ccc(C(=O)N2CC[C@H]3[C@H]2[C@@H](CCC)C(=O)N3S(C)(=O)=O)cc1` (relative stereo) [Example 239, rel-(3R,3aR,6aS)-4-(4-Butoxy-benzoyl)-1-methanesulfonyl-3-propyl-hexahydro-pyrrolo[3,2-b]pyrrol-2-one] belongs 18 nM.
For the molecule `CCC[C@H]1C(=O)N(S(=O)(=O)c2cccnc2)[C@H]2CCN(C(=O)CCN3CCCCC3)[C@H]12` (relative stereo) [Example 172, rel-(3R,3aR,6aS)-4-(3-Piperidin-1-yl-propionyl)-3-propyl-1-(pyridine-3-sulfonyl)-hexahydro-pyrrolo[3,2-b]pyrrol-2-one dihydrochloride], the IC50 was 69 nM.
For the molecule `C=CC[C@H]1C(=O)N(S(=O)(=O)c2ccc3ccccc3c2)[C@H]2CCN(C(=O)OCc3ccccc3)[C@H]12` (relative stereo) [Example 1, rel-(3aS,6R,6aR)-6-Allyl-4-(naphthalene-2-sulfonyl)-5-oxo-hexahydro-pyrrolo[3,2-b]pyrrole-1-carboxylic acid benzyl ester], the IC50 stood at 36 nM.
`CCC[C@H]1C(=O)N(S(C)(=O)=O)[C@H]2CCN(C(=O)/C=C/c3ccc(CN4CCCCC4)cc3)[C@H]12` (relative stereo) [Example 133, rel-(3R,3aR,6aS)-1-Methanesulfonyl-4-[3-(4-piperidin-1-ylmethyl-phenyl)-(E)-acryloyl]-3-propyl-hexahydro-pyrrolo[3,2-b]pyrrol-2-one hydrochloride]: the IC50 stood at 61 nM.
Regarding `CCC[C@H]1C(=O)N(S(C)(=O)=O)[C@H]2CCN(C(=O)CCN3CCC3)[C@H]12` (relative stereo) [Example 97, rel-(3R,3aR,6aS)-4-(3-Azetidin-1-yl-propionyl)-1-methanesulfonyl-3-propyl-hexahydro-pyrrolo[3,2-b]pyrrol-2-one hydrochloride], the IC50 worked out at 202 nM.
On to `CCC[C@H]1C(=O)N(S(=O)(=O)c2ccc(C#N)cc2)[C@H]2CCN(C(=O)CCCCCN3CCCCC3)[C@H]12` (relative stereo) [Example 205, rel-4-[2-Oxo-4-(6-piperidin-1-yl-hexanoyl)-3R-propyl-hexahydro-(3aR,6aS)-pyrrolo[3,2-b]pyrrole-1-sulfonyl]-benzonitrile DL-tartrate], for which the IC50 was found to be 28 nM.
Regarding `CCC[C@H]1C(=O)N(S(C)(=O)=O)[C@H]2CCN(C(=O)CCN3CCC(C(N)=O)CC3)[C@H]12` (relative stereo) [Example 98, rel-(3R,3aR,6aS)-1-[3-(4-Methanesulfonyl-5-oxo-6-propyl-hexahydro-pyrrolo[3,2-b]pyrrol-1-yl)-3-oxo-propyl]-piperidine-4-carboxylic acid amide hydrochloride], the IC50 amounted to 159 nM.
As for `C=CC[C@H]1C(=O)N(S(=O)(=O)c2cccc3c(N(C)C)cccc23)[C@H]2CCN(C(=O)OCc3ccccc3)[C@H]12` (relative stereo) [Example 18, rel-(3aS,6R,6aR)-6-Allyl-4-(5-dimethylamino-naphthalene-1-sulfonyl)-5-oxo-hexahydro-pyrrolo[3,2-b]pyrrole-1-carboxylic acid benzyl ester], the figure is 69 nM.
For the molecule `CCC[C@H]1C(=O)N(S(C)(=O)=O)[C@H]2CCN(S(=O)(=O)c3ccc(C(=O)N4CCN(C)CC4)cc3)[C@H]12` (relative stereo) [Example 127, rel-(3R,3aR,6aS)-1-Methanesulfonyl-4-[4-(4-methyl-piperazine-1-carbonyl)-benzenesulfonyl]-3-propyl-hexahydro-pyrrolo[3,2-b]pyrrol-2-one hydrochloride], the IC50 is 40 nM.
As for `CC(C)[C@H]1C(=O)N(S(C)(=O)=O)[C@H]2CCN(C(=O)CCCC3CCN(C)CC3)[C@H]12` (relative stereo) [Example 256, rel-(3R,3aR,6aS)-3-Isopropyl-1-methanesulfonyl-4-[4-(1-methyl-piperidin-4-yl)-butyryl]-hexahydro-pyrrolo[3,2-b]pyrrol-2-one hydrochloride], the IC50 stood at 78 nM.
As for `CCC[C@H]1C(=O)N(S(C)(=O)=O)[C@H]2CCN(C(=O)/C=C/c3ccc(CN4CCN(C)CC4)cc3)[C@H]12` (relative stereo) [Example 132, rel-(3R,3aR,6aS)-1-Methanesulfonyl-4-{3-(4-(4-methyl-piperazin-1-ylmethy)-phenyl-(E)-acryloyl}-3-propyl-hexahydro-pyrrolo[3,2-b]pyrrol-2-one dihydrochloride], the figure is 83 nM; as for `CCC[C@H]1C(=O)N(S(C)(=O)=O)[C@H]2CCN(C(=O)CCCCCCCCCN(C)c3ccccc3)[C@H]12` (relative stereo) [Example 68, rel-(3R,3aR,6aS)-1-Methanesulfonyl-4-[10-methyl-phenyl-amino)decanoyl]-3-propyl-hexahydro-pyrrolo[3,2-b]pyrrol-2-one hydrochloride], 73 nM.
